# Read-outs that look alike come from different tables or passages of the source.
# Tests used:
# all 50 cell lines = test: CellTiter-Glo Viability Assay, average across all cell lines; assay type: cell-based; settings: Homo sapiens; across all 50 cell lines; read-out: average EC50 for inhibition of cancer cell proliferation
# Procedure, shortened: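 Human cancer cell lines from breast, colorectal, haematopoietic/lymphoid, liver, lung, ovarian, pancreatic and prostate tumours were seeded at 300-3,000 cells/well and exposed to compound in duplicate for four days at 37° C, 5% CO2. Viable cells were measured by ATP luminescence; EC50 values came from dose-response curves.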
# [1] = tested on: liver cancer (3 cell lines); test: CellTiter-Glo Viability Assay, liver cancer; assay type: cell-based; settings: Homo sapiens, inhibition of cancer cell proliferation
# [2] = tested on: colorectal cancer (6 cell lines); test: CellTiter-Glo Viability Assay, colorectal cancer; assay type: cell-based; settings: Homo sapiens, inhibition of cancer cell proliferation
# [3] = tested on: ovarian cancer (4 cell lines); test: CellTiter-Glo Viability Assay, ovarian cancer; assay type: cell-based; settings: Homo sapiens, inhibition of cancer cell proliferation
# CLK2 = target: T1, CLK2 (Homo sapiens, UniProt P49760); test: CLK2 kinase activity assay (Z-lyte, Ser/Thr 6 peptide); assay type: biochemical; settings: recombinant CLK2 kinase, ATP 60 μM; read-out: EC50
# T1 construct: purchased Thermo Fisher (Life Technologies), Z'-LYTE Kinase Assay Kits
# T1 sequence (P49760 whole entry): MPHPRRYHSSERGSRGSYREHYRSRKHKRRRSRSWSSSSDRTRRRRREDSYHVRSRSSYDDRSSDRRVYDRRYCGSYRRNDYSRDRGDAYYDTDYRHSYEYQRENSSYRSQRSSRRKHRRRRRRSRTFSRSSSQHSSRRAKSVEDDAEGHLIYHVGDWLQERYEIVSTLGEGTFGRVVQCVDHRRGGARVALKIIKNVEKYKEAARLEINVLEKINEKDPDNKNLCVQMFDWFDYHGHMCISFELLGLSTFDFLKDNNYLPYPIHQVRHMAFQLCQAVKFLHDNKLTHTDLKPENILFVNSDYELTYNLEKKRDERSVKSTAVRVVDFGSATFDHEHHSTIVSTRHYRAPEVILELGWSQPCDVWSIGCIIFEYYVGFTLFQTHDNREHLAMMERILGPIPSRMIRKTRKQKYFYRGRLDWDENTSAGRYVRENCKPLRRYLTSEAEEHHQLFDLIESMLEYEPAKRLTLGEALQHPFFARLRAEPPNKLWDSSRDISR
# Method: All reactions were performed in duplicate.
# ZR-75-1 = test: CellTiter-Glo Viability Assay, breast cancer; assay type: cell-based; settings: Homo sapiens, 96 h; ZR-75-1, breast cancer, four days; read-out: EC50
# BT-549 = test: CellTiter-Glo Viability Assay, breast cancer; assay type: cell-based; settings: Homo sapiens, 96 h; BT-549, breast cancer, four days; read-out: EC50
# T47D = test: CellTiter-Glo Viability Assay, breast cancer; assay type: cell-based; settings: Homo sapiens, 96 h, breast cancer, four days, read-out: EC50
# DU4475 = test: CellTiter-Glo Viability Assay, breast cancer; assay type: cell-based; settings: Homo sapiens, DU-4475, 96 h; DU4475, breast cancer, four days; read-out: EC50
# HCC1599 = test: CellTiter-Glo Viability Assay, breast cancer; assay type: cell-based; settings: Homo sapiens, 96 h; HCC1599, breast cancer, four days; read-out: EC50
# MCF7 = test: CellTiter-Glo Viability Assay, breast cancer; assay type: cell-based; settings: Homo sapiens, 96 h; MCF7, breast cancer, four days; read-out: EC50
# CAMA1 = test: CellTiter-Glo Viability Assay, breast cancer; assay type: cell-based; settings: Homo sapiens, CAMA-1, 96 h; CAMA1, breast cancer, four days; read-out: EC50
# MDA-MB-231-Luc = test: CellTiter-Glo Viability Assay, breast cancer; assay type: cell-based; settings: Homo sapiens, 96 h; MDA-MB-231-Luc, breast cancer, four days; read-out: EC50
# [4] = tested on: prostate cancer (5 cell lines); test: CellTiter-Glo Viability Assay, prostate cancer; assay type: cell-based; settings: Homo sapiens
# [5] = tested on: haematopoietic & lymphoid tumors (13 cell lines); test: CellTiter-Glo Viability Assay, haematopoietic & lymphoid tumors; assay type: cell-based; settings: Homo sapiens, inhibition of cancer cell proliferation
# [6] = tested on: pancreatic cancer (8 cell lines); test: CellTiter-Glo Viability Assay, pancreatic cancer; assay type: cell-based; settings: Homo sapiens, inhibition of cancer cell proliferation
# CLK3 = CLK3 (Homo sapiens, UniProt P49761); test: CLK3 kinase activity assay (Z-lyte, Ser/Thr 18 peptide)
# Chain of CLK3 (P49761 whole entry): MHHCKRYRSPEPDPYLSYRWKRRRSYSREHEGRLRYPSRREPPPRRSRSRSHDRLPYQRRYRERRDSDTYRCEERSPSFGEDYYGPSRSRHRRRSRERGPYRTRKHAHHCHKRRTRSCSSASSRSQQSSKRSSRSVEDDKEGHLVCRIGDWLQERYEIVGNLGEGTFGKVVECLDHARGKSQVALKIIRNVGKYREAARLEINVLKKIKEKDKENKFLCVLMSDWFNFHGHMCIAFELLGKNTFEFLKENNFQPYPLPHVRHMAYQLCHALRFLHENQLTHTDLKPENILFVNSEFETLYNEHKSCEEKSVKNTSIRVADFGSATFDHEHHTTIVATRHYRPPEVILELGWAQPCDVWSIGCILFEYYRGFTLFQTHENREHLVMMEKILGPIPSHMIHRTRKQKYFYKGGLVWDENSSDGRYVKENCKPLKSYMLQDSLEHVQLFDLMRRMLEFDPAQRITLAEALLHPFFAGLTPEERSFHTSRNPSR
# Method: Each compound was dissolved in DMSO as a 10 mM stock and used to prepare compound source plates.
# This is a non-radioactive assay using fluorescence resonance energy transfer (FRET) between coumarin and fluorescein to detect kinase activity which is represented as a ratio of coumarin emission/fluorescein emission.
# All reactions were performed in duplicate. Unphosphorylated (“0% Control”) and phosphorylated (“100% control”) forms of Ser/Thr 18 served as control reactions. Additionally, an 11-point dose-response curve of Staurosporine (1 uM top) was run to serve as a positive compound control.
# After incubation, Development Reagent A was diluted in Development Buffer then added to the reaction and allowed to further incubate for one hour at room temperature.
# Dose-response curves were generated and inhibitory concentration (IC50) values were calculated using non-linear regression curve fit in the Dotmatics' Studies Software (Bishops Stortford, UK).
# Compounds were acoustically transferred on 1536-well plates (Echo 550, LabCyte) instrument. Kinase, peptide, and ATP reagents from the Z′-LYTE Kinase Assay Kits (Thermo Fisher) were dispensed onto the compound plates using an EL406 liquid dispenser (BioTek). Plates were incubated in the dark at room temperature for 1 hr. Development reagent was added to the plates and then incubated in the dark at room temperature for 1 hr. Fluorescence signal form the plate was then read using an EnVision Multilabel Plate Reader (Perkin Elmer).
# [7] = tested on: lung cancer (4 cell lines); test: CellTiter-Glo Viability Assay, lung cancer; assay type: cell-based; settings: Homo sapiens, inhibition of cancer cell proliferation
# [8] = SNU-398, SNU398 cell line, read-out: Liver cancer, EC50 SNU398
# [9] = HEPG2 cell line, read-out: Liver cancer, EC50 HEPG2
# [10] = PLC/PRF/5 cell line, read-out: Liver cancer, EC50 PLC/PRF/5
# [11] = HCT-116, HCT116 cell line, read-out: Colorectal cancer, EC50 (μM) HCT116
# [12] = HT-29, HT29 cell line, read-out: Colorectal cancer, EC50 (μM) HT29
# [13] = SW-620, SW620 cell line, read-out: Colorectal cancer, EC50 (μM) SW620
# [14] = DLD-1 cell line, read-out: Colorectal cancer, EC50 (μM) DLD-1
# [15] = SW48 cell line, read-out: Colorectal cancer, EC50 (μM) SW48
# [16] = SW480 cell line, read-out: Colorectal cancer, EC50 (μM) SW480
# [17] = PA-1, PA1 cell line, read-out: Ovarian cancer, EC50 (μM) PA1
# [18] = TOV112D, TOV-112D cell line, read-out: Ovarian cancer, EC50 (μM) TOV-112D
# [19] = OV-90 cell line, read-out: Ovarian cancer, EC50 (μM) OV-90
# [20] = OVCAR-3 cell line, read-out: Ovarian cancer, EC50 (μM) OVCAR-3
# [21] = DU-145, read-out: Prostate cancer EC50 Du-145
# [22] = PC-3, PC3 cell line, inhibition of cancer cell proliferation, read-out: Prostate cancer EC50 PC3
# [23] = 22Rv1 cell line, inhibition of cancer cell proliferation, read-out: Prostate cancer EC50 22Rv1
# [24] = LNCap clone FGC cell line, inhibition of cancer cell proliferation, read-out: Prostate cancer EC50 LNCap clone FGC
# [25] = VCaP (Sigma) cell line, inhibition of cancer cell proliferation, read-out: Prostate cancer EC50 VCaP (Sigma)
# [26] = DND41, DND-41 cell line, read-out: Haematopoietic & Lymphoid tumors, EC50 (μM) DND-41
# [27] = MV4-11, MV-4-11 cell line, read-out: Haematopoietic & Lymphoid tumors, EC50 (μM) MV-4-11
# [28] = Rec1, REC-1 cell line, read-out: Haematopoietic & Lymphoid tumors, EC50 (μM) REC-1
# [29] = SU-DHL-4, SUDHL4 cell line, read-out: Haematopoietic & Lymphoid tumors, EC50 (μM) SUDHL4
# [30] = HL-60 cell line, read-out: Haematopoietic & Lymphoid tumors, EC50 (μM) HL-60
# [31] = JM1 cell line, read-out: Haematopoietic & Lymphoid tumors, EC50 (μM) JM1
# [32] = JURKAT, Clone E6-1 cell line, read-out: Haematopoietic & Lymphoid tumors, EC50 (μM) JURKAT, Clone E6-1
# [33] = JeKo-1 cell line, read-out: Haematopoietic & Lymphoid tumors, EC50 (μM) JeKo-1
# [34] = KASUMI-1 cell line, read-out: Haematopoietic & Lymphoid tumors, EC50 (μM) KASUMI-1
# [35] = Loucy cell line, read-out: Haematopoietic & Lymphoid tumors, EC50 (μM) Loucy
# [36] = MOLT-4 cell line, read-out: Haematopoietic & Lymphoid tumors, EC50 (μM) MOLT-4
# [37] = TF-1 cell line, read-out: Haematopoietic & Lymphoid tumors, EC50 (μM) TF-1
# [38] = TOLEDO cell line, read-out: Haematopoietic & Lymphoid tumors, EC50 (μM) TOLEDO
# [39] = BXPC-3, BxPC3 cell line, read-out: Pancreatic cancer, EC50 BxPC3
# [40] = CAPAN-1, Capan1 cell line, read-out: Pancreatic cancer, EC50 Capan1
# [41] = Capan-2, Capan2 cell line, read-out: Pancreatic cancer, EC50 Capan2
# [42] = MIA PaCa-2 cell line, read-out: Pancreatic cancer, EC50 MIA PaCa-2
# [43] = PANC 05.04 cell line, read-out: Pancreatic cancer, EC50 PANC 05.04
# [44] = PANC-1 cell line, read-out: Pancreatic cancer, EC50 PANC-1
# [45] = UPAFII cell line, read-out: Pancreatic cancer, EC50 UPAFII
# [46] = A-427, A427 cell line, read-out: Lung cancer, EC50 (μM) A427
# [47] = HCC78, HCC-78 cell line, read-out: Lung cancer, EC50 (μM) HCC-78
# [48] = NCI-H460 cell line, read-out: Lung cancer, EC50 (μM) NCI-H460
# [49] = NCI-H522 cell line, read-out: Lung cancer, EC50 (μM) NCI-H522
smiles,measurement,setting,value
CN(C)C1CN(c2cc(C(=O)Nc3cc4cc(-c5cnn(C)c5)ccc4cn3)ccn2)C1 [Compound 70],EC50,all 50 cell lines,0.75 µM
same,EC50,[1]; [8],0.205 µM
same,EC50,[1]; [9],0.75 µM
same,EC50,[1]; [10],1.47 µM
same,EC50,[2]; [11],0.465 µM
same,EC50,[2]; [12],1.09 µM
same,EC50,[2]; [13],0.352 µM
same,EC50,[2]; [14],0.481 µM
same,EC50,[2]; [15],0.285 µM
same,EC50,[2]; [16],0.739 µM
same,EC50,[3]; [17],0.585 µM
same,EC50,[3]; [18],0.593 µM
same,EC50,[3]; [19],1.45 µM
same,EC50,[3]; [20],0.37 µM
same,EC50,CLK2,0.0016 µM
same,EC50,ZR-75-1,1.12 µM
same,EC50,BT-549,0.496 µM
same,EC50,T47D,1.35 µM
same,EC50,DU4475,0.624 µM
same,EC50,HCC1599,0.51 µM
same,EC50,MCF7,2.15 µM
same,EC50,CAMA1,0.788 µM
same,EC50,MDA-MB-231-Luc,0.891 µM
same,EC50,[4]; [21],0.806 µM
same,EC50,[4]; [22],0.701 µM
same,EC50,[4]; [23],0.612 µM
same,EC50,[4]; [24],1.08 µM
same,EC50,[4]; [25],1.06 µM
same,EC50,[5]; [26],0.774 µM
same,EC50,[5]; [27],0.193 µM
same,EC50,[5]; [28],0.189 µM
same,EC50,[5]; [29],0.899 µM
same,EC50,[5]; [30],1.24 µM
same,EC50,[5]; [31],0.273 µM
same,EC50,[5]; [32],0.863 µM
same,EC50,[5]; [33],0.347 µM
same,EC50,[5]; [34],0.555 µM
same,EC50,[5]; [35],0.617 µM
same,EC50,[5]; [36],0.643 µM
same,EC50,[5]; [37],0.785 µM
same,EC50,[5]; [38],0.25 µM
same,EC50,[6]; [39],0.94 µM
same,EC50,[6]; [40],0.702 µM
same,EC50,[6]; [41],1.14 µM
same,EC50,[6]; [42],0.461 µM
same,EC50,[6]; [43],0.713 µM
same,EC50,[6]; [44],1.22 µM
same,EC50,[6]; [45],0.385 µM
same,EC50,CLK3,0.0245 µM
same,EC50,[7]; [46],0.605 µM
same,EC50,[7]; [47],1.12 µM
same,EC50,[7]; [48],1.13 µM
same,EC50,[7]; [49],0.389 µM
CN1CCC2(CC1)CN(c1cc(C(=O)Nc3cc4cc(-c5cnn(C)c5)ccc4cn3)ccn1)C2 [Compound 71],EC50,all 50 cell lines,0.232 µM
same,EC50,[1]; [8],0.048 µM
same,EC50,[1]; [9],0.165 µM
same,EC50,[1]; [10],0.459 µM
same,EC50,[2]; [11],0.105 µM
same,EC50,[2]; [12],0.247 µM
same,EC50,[2]; [13],0.068 µM
same,EC50,[2]; [14],0.137 µM
same,EC50,[2]; [15],0.052 µM
same,EC50,[2]; [16],0.145 µM
same,EC50,[3]; [17],0.209 µM
same,EC50,[3]; [18],0.117 µM
same,EC50,[3]; [19],0.334 µM
same,EC50,[3]; [20],0.092 µM
same,EC50,CLK2,0.0011 µM
same,EC50,ZR-75-1,0.365 µM
same,EC50,BT-549,0.215 µM
same,EC50,T47D,0.493 µM
same,EC50,DU4475,0.14 µM
same,EC50,HCC1599,0.177 µM
same,EC50,MCF7,0.86 µM
same,EC50,CAMA1,0.307 µM
same,EC50,MDA-MB-231-Luc,0.292 µM
same,EC50,[4]; [21],0.252 µM
same,EC50,[4]; [22],0.205 µM
same,EC50,[4]; [23],0.232 µM
same,EC50,[4]; [24],0.333 µM
same,EC50,[4]; [25],0.466 µM
same,EC50,[5]; [26],0.191 µM
same,EC50,[5]; [27],0.056 µM
same,EC50,[5]; [28],0.061 µM
same,EC50,[5]; [29],0.208 µM
same,EC50,[5]; [30],0.432 µM
same,EC50,[5]; [31],0.054 µM
same,EC50,[5]; [32],0.431 µM
same,EC50,[5]; [33],0.062 µM
same,EC50,[5]; [34],0.129 µM
same,EC50,[5]; [35],0.146 µM
same,EC50,[5]; [36],0.2 µM
same,EC50,[5]; [37],0.368 µM
same,EC50,[5]; [38],0.073 µM
same,EC50,[6]; [39],0.383 µM
same,EC50,[6]; [40],0.225 µM
same,EC50,[6]; [41],0.344 µM
same,EC50,[6]; [42],0.09 µM
same,EC50,[6]; [43],0.289 µM
same,EC50,[6]; [44],0.352 µM
same,EC50,[6]; [45],0.14 µM
same,EC50,CLK3,0.0162 µM
same,EC50,[7]; [46],0.198 µM
same,EC50,[7]; [47],0.304 µM
same,EC50,[7]; [48],0.248 µM
same,EC50,[7]; [49],0.095 µM

# Reference: patent US20220062240A1, “METHODS OF TREATING CANCER USING A CLK INHIBITOR” (BioSplice Therapeutics, Inc., priority 2018, published 2022)
